Source: PubChem BioAssay (NCI)
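Tested at 5 concentrations; 48 h exposure; 96-well plates; endpoints linearly interpolated, else capped at highest concentration. The concentration for 50% growth inhibition is given as GI50. TGI: total growth inhibition.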

How the values were obtained:
Test in all cases: DTP human tumour cell line panel, 48 h; in the data active = GI50 below about 0.43 µM; inactive = the rest
[1] = system: UACC-257 melanoma
[2] = system: OVCAR-4 ovarian
[3] = system: RPMI-8226 leukemia
[4] = system: SW-620 colon
[5] = system: SK-MEL-5 melanoma
[6] = system: NCI/ADR-RES ovarian
[7] = system: CCRF-CEM leukemia
[8] = system: HS 578T breast
[9] = system: MDA-MB-435
[10] = system: HT29 colon
[11] = system: HCT-15 colon
[12] = system: MCF7 breast
[13] = system: SK-MEL-2 melanoma
[14] = system: SN12C renal
[15] = system: HCC-2998 colon
[16] = system: HOP-62 NSCLC
[17] = system: NCI-H522 lung
[18] = system: MALME-3M melanoma
[19] = system: NCI-H460 lung
[20] = system: OVCAR-8 ovarian
[21] = system: HL-60(TB) leukemia
[22] = system: M14 melanoma
[23] = system: NCI-H23 lung
[24] = system: SK-MEL-28 melanoma
[25] = system: SR leukemia
[26] = system: SF-295 CNS
[27] = system: HCT-116 colon
[28] = system: SF-268 CNS
[29] = system: A549 NSCLC
[30] = system: A498 renal
[31] = system: RXF 393 renal
[32] = system: UO-31 renal
[33] = system: SNB-75 CNS
[34] = system: KM12 colon
[35] = system: IGROV1 ovarian
[36] = system: SNB-19 CNS
[37] = system: OVCAR-3 ovarian
[38] = system: SK-OV-3 ovarian
[39] = system: U251 CNS
[40] = system: UACC-62 melanoma
[41] = system: HOP-92 NSCLC
[42] = system: SF-539 CNS
[43] = system: T-47D breast
[44] = system: MDA-MB-231 breast
[45] = system: BT-549 breast
[46] = system: 786-0 renal
[47] = system: OVCAR-5 ovarian
[48] = system: DU-145 prostate
[49] = system: TK-10 renal
[50] = system: LOX IMVI melanoma
[51] = system: MOLT-4 leukemia
[52] = system: COLO 205 colon
[53] = system: PC-3 prostate
[54] = system: NCI-H226 lung
[55] = system: ACHN renal
[56] = system: EKVX NSCLC
[57] = system: CAKI-1 renal
[58] = system: K-562 leukemia

COc1ccc(COc2ccc(Cc3cnc(N)nc3N)cc2OC)cc1
7.66 µM: TGI [5]
inactive: GI50 [1] 8.48 µM | GI50 [2] 11 µM | GI50 [3] > 19.9 µM | GI50 [4] > 25 µM | GI50 [5] 3.43 µM | GI50 [6] > 19 µM | GI50 [7] > 25 µM | GI50 [8] > 23.4 µM | GI50 [9] > 25 µM | GI50 [10] 11.7 µM | GI50 [11] > 23.7 µM | GI50 [12] 11.7 µM | GI50 [13] > 25 µM | GI50 [14] > 25 µM | GI50 [15] > 25 µM | GI50 [16] > 18.4 µM | GI50 [17] > 25 µM | GI50 [18] > 5.1 µM | GI50 [19] > 22.1 µM | GI50 [20] > 25 µM | GI50 [21] > 20.6 µM | GI50 [22] > 25 µM | GI50 [23] > 17.1 µM | GI50 [24] 24.8 µM | GI50 [25] 24.3 µM | GI50 [26] 10.4 µM | GI50 [27] 14.6 µM | GI50 [28] > 25 µM | GI50 [29] > 23.4 µM | GI50 [30] 2.27 µM | GI50 [31] 8.21 µM | GI50 [32] 11.9 µM | GI50 [33] 8.09 µM | GI50 [34] 1.03 µM | GI50 [35] > 25 µM | GI50 [36] > 25 µM | GI50 [37] > 19.4 µM | GI50 [38] > 25 µM | GI50 [39] 21.4 µM | GI50 [40] 12 µM | GI50 [41] 1.29 µM | GI50 [42] > 25 µM | GI50 [43] 7.08 µM | GI50 [44] 23.1 µM | GI50 [45] 12.1 µM | GI50 [46] > 25 µM | GI50 [47] > 25 µM | GI50 [48] > 25 µM | GI50 [49] > 25 µM | GI50 [50] > 25 µM | GI50 [51] > 25 µM | GI50 [52] 4.27 µM | GI50 [53] > 22.4 µM | GI50 [54] 16 µM | GI50 [55] > 25 µM | GI50 [56] > 16.2 µM | GI50 [57] > 24.1 µM | GI50 [58] 8.19 µM
8.15 µM: TGI [52]
> 25 µM: TGI [1] | TGI [2] | TGI [3] | TGI [4] | TGI [6] | TGI [7] | TGI [8] | TGI [9] | TGI [10] | TGI [11] | TGI [12] | TGI [13] | TGI [14] | TGI [15] | TGI [16] | TGI [17] | TGI [18] | TGI [19] | TGI [20] | TGI [21] | TGI [22] | TGI [23] | TGI [24] | TGI [25] | TGI [26] | TGI [27] | TGI [28] | TGI [29] | TGI [30] | TGI [31] | TGI [32] | TGI [33] | TGI [34] | TGI [35] | TGI [36] | TGI [37] | TGI [38] | TGI [39] | TGI [40] | TGI [42] | TGI [43] | TGI [44] | TGI [45] | TGI [46] | TGI [47] | TGI [48] | TGI [49] | TGI [50] | TGI [51] | TGI [53] | TGI [54] | TGI [55] | TGI [56] | TGI [57] | TGI [58]
> 21 µM: TGI [41]
